Results published in ChEMBL document CHEMBL5244219, “Recent developments of quinolone-based derivatives and their activities against Escherichia coli” (Eur J Med Chem, 2018).
In brackets after ≈: the same amount, converted by molar mass.

The compounds below were run on Escherichia coli (assay: Antibacterial activity against Escherichia coli NIHJ JC-2 assessed as bacterial growth inhibition).
Assay type: functional

MIC [µg/mL]	Compound
0.025 (≈ 0.0671 µM)	NC1CCN(c2c(F)c3c(c(=O)c(C(=O)O)cn3C3CC3)c3[nH]nnc23)C1 (centres undefined)
0.025 (≈ 0.0707 µM)	O=C(O)c1cn(C2CC2)c2cc(N3CCNCC3)c3nc[nH]c3c2c1=O
0.025 (≈ 0.0649 µM)	NCC1CCN(c2c(F)c3c(c(=O)c(C(=O)O)cn3C3CC3)c3[nH]cnc23)C1 (centres undefined)
0.025 (≈ 0.0647 µM)	CN1CCN(c2c(F)c3c(c(=O)c(C(=O)O)cn3C3CC3)c3[nH]nnc23)CC1
0.025 (≈ 0.0679 µM)	CN1CCN(c2cc3c(c(=O)c(C(=O)O)cn3C3CC3)c3[nH]nnc23)CC1
0.025 (≈ 0.0707 µM)	NC1CCN(c2cc3c(c(=O)c(C(=O)O)cn3C3CC3)c3[nH]cnc23)C1 (centres undefined)
0.025 (≈ 0.0645 µM)	NC1CCN(c2c(Cl)c3c(c(=O)c(C(=O)O)cn3C3CC3)c3[nH]cnc23)C1 (centres undefined)
0.025 (≈ 0.0649 µM)	CN1CCN(c2c(F)c3c(c(=O)c(C(=O)O)cn3C3CC3)c3[nH]cnc23)CC1
0.025 (≈ 0.0622 µM)	CN1CCN(c2c(Cl)c3c(c(=O)c(C(=O)O)cn3C3CC3)c3[nH]cnc23)CC1
0.025 (≈ 0.068 µM)	NCC1CCN(c2cc3c(c(=O)c(C(=O)O)cn3C3CC3)c3[nH]cnc23)C1 (centres undefined)
0.0125 (≈ 0.0319 µM)	C[C@@H]1CN(c2c(F)c(N)c3c(=O)c(C(=O)O)cn(C4CC4)c3c2F)C[C@H](C)N1 [SPARFLOXACIN]
0.025 (≈ 0.0643 µM)	NC1CCN(c2c(Cl)c3c(c(=O)c(C(=O)O)cn3C3CC3)c3[nH]nnc23)C1 (centres undefined)
0.025 (≈ 0.0621 µM)	CN1CCN(c2c(Cl)c3c(c(=O)c(C(=O)O)cn3C3CC3)c3[nH]nnc23)CC1
0.025 (≈ 0.0647 µM)	NCC1CCN(c2c(F)c3c(c(=O)c(C(=O)O)cn3C3CC3)c3[nH]nnc23)C1 (centres undefined)
0.025 (≈ 0.068 µM)	CN1CCN(c2cc3c(c(=O)c(C(=O)O)cn3C3CC3)c3[nH]cnc23)CC1
0.025 (≈ 0.0673 µM)	NC1CCN(c2c(F)c3c(c(=O)c(C(=O)O)cn3C3CC3)c3[nH]cnc23)C1 (centres undefined)

Compound	MIC [µg/mL]
O=C(O)c1cn(C2CC2)c2c(F)c(N3CCNCC3)c3nn[nH]c3c2c1=O	0.025 (≈ 0.0671 µM)
O=C(O)c1cn(C2CC2)c2c(F)c(N3CCNCC3)c3nc[nH]c3c2c1=O	0.025 (≈ 0.0673 µM)
O=C(O)c1cn(C2CC2)c2c(Cl)c(N3CCNCC3)c3nc[nH]c3c2c1=O	0.025 (≈ 0.0645 µM)

Each compound was assayed on Escherichia coli (assay: Antibacterial activity against Escherichia coli assessed as bacterial growth inhibition incubated for 18 hrs by twofold serial dilution assay).
Assay type: functional

MIC [µg/mL]	Compound
0.0075 (≈ 0.0155 µM)	CO/N=C(/CN1CCN(c2cc3c(cc2F)c(=O)c(C(=O)O)cn3C2CC2)CC1)c1cccs1
0.03 (≈ 0.0826 µM)	O=C(O)c1cn(C2CC2)c2c(F)c(N3CCCNCC3)c(F)cc2c1=O
0.049 (≈ 0.0918 µM)	CCn1cc(C(=O)O)c(=O)c2cc(F)c(N3CCN(C/C(=N/OCc4ccccc4)c4ccoc4)CC3)nc21
0.049 (≈ 0.0898 µM)	O=C(O)c1cn(C2CC2)c2nc(N3CCN(C/C(=N/OCc4ccccc4)c4ccoc4)CC3)c(F)cc2c1=O
0.03 (≈ 0.0787 µM)	O=C(O)c1cn(C2CC2)c2c(F)c(N3CCNCC(F)C3)c(F)cc2c1=O (centres undefined)
0.25 (≈ 0.659 µM)	O=C(O)c1cn(C2CC2)c2c(F)c(N3CCNCC(O)C3)c(F)cc2c1=O (centres undefined)
0.049 (≈ 0.112 µM)	O=C(CN1CCN(c2cc3c(cc2F)c(=O)c(C(=O)O)cn3C2CC2)CC1)c1ccoc1
0.049 (≈ 0.108 µM)	O=C(O)c1cn(C2CC2)c2cc(N3CCN(C/C(=N/O)c4ccoc4)CC3)c(F)cc2c1=O
0.0075 (≈ 0.0165 µM)	O=C(CN1CCN(c2cc3c(cc2F)c(=O)c(C(=O)O)cn3C2CC2)CC1)c1cccs1
0.049 (≈ 0.111 µM)	CCn1cc(C(=O)O)c(=O)c2cc(F)c(N3CCN(C/C(=N/O)c4ccoc4)CC3)nc21
0.049 (≈ 0.114 µM)	CCn1cc(C(=O)O)c(=O)c2cc(F)c(N3CCN(CC(=O)c4ccoc4)CC3)nc21
0.13 (≈ 0.406 µM)	CCn1cc(C(=O)O)c(=O)c2cc(F)c(N3CCNCC3)nc21 [ENOXACIN]
0.049 (≈ 0.092 µM)	CCn1cc(C(=O)O)c(=O)c2cc(F)c(N3CCN(C/C(=N/OCc4ccccc4)c4ccoc4)CC3)cc21
0.049 (≈ 0.111 µM)	CCn1cc(C(=O)O)c(=O)c2cc(F)c(N3CCN(C/C(=N/O)c4ccoc4)CC3)cc21

Each compound was assayed on Escherichia coli (assay: Antibacterial activity against Escherichia coli NCDC 134 assessed as bacterial growth inhibition).
Assay type: functional

MIC [µg/mL]	Compound
> 64	CCN(CC)Cc1cn(-c2cc3c(cc2F)c(=O)c(C(=O)NO)cn3C2CC2)nn1
> 64	COc1ccc(/C=N/NC(=O)c2cn(C3CC3)c3cc(N/N=C/c4ccc(OC)c(O)c4)c(F)cc3c2=O)cc1O
> 64	O=C(N/N=C/c1ccccc1)c1cn(C2CC2)c2cc(N/N=C/c3ccccc3)c(F)cc2c1=O
6 (≈ 10.4 µM)	COc1c(N2CCN(CC(=O)Nc3nc4ccc(C)cc4s3)C(C)C2)c(F)cc2c(=O)c(C(=O)O)cn(C3CC3)c12 (centres undefined)
> 64	O=C(N/N=C/c1ccc(F)cc1)c1cn(C2CC2)c2cc(N3CCNCC3)c(F)cc2c1=O
6 (≈ 9.46 µM)	COc1c(N2CCN(CC(=O)Nc3nc4c(Cl)ccc(Cl)c4s3)C(C)C2)c(F)cc2c(=O)c(C(=O)O)cn(C3CC3)c12 (centres undefined)
> 64	COc1cc(/C=N/NC(=O)c2cn(C3CC3)c3cc(N/N=C/c4cc(OC)c(OC)c(OC)c4)c(F)cc3c2=O)cc(OC)c1OC
> 64	CN(C)Cc1cn(-c2cc3c(cc2F)c(=O)c(C(=O)NO)cn3C2CC2)nn1
> 64	O=C(N/N=C/c1ccc2c(c1)OCO2)c1cn(C2CC2)c2cc(N3CCNCC3)c(F)cc2c1=O
6 (≈ 10.8 µM)	CCn1cc(C(=O)O)c(=O)c2cc(F)c(N3CCN(CC(=O)Nc4nc5ccc([N+](=O)[O-])cc5s4)CC3)cc21
6 (≈ 10.2 µM)	O=C(CN1CCN(c2cc3c(cc2F)c(=O)c(C(=O)O)cn3C2CC2)CC1)Nc1nc2c(Cl)ccc(Cl)c2s1
> 64	O=C(N/N=C/c1ccccc1O)c1cn(C2CC2)c2cc(N/N=C/c3ccccc3O)c(F)cc2c1=O
> 64	O=C(N/N=C/c1ccc([N+](=O)[O-])cc1)c1cn(C2CC2)c2cc(N3CCNCC3)c(F)cc2c1=O
6 (≈ 10.6 µM)	O=C(CN1CCN(c2cc3c(cc2F)c(=O)c(C(=O)O)cn3C2CC2)CC1)Nc1nc2ccc([N+](=O)[O-])cc2s1
> 64	O=C(N/N=C/c1ccccc1O)c1cn(C2CC2)c2cc(N3CCNCC3)c(F)cc2c1=O
6 (≈ 9.83 µM)	COc1c(N2CCN(CC(=O)Nc3nc4ccc([N+](=O)[O-])cc4s3)C(C)C2)c(F)cc2c(=O)c(C(=O)O)cn(C3CC3)c12 (centres undefined)
6 (≈ 10.4 µM)	CCn1cc(C(=O)O)c(=O)c2cc(F)c(N3CCN(CC(=O)Nc4nc5c(Cl)ccc(Cl)c5s4)CC3)cc21
6 (≈ 11.1 µM)	O=C(CN1CCN(c2cc3c(cc2F)c(=O)c(C(=O)O)cn3C2CC2)CC1)Nc1nc2ccc(F)cc2s1
> 64	COc1ccc(/C=N/NC(=O)c2cn(C3CC3)c3cc(N4CCNCC4)c(F)cc3c2=O)cc1

MIC [µg/mL]	Compound
> 64	CC(C)NCc1cn(-c2cc3c(cc2F)c(=O)c(C(=O)NO)cn3C2CC2)nn1
> 64	O=C(NO)c1cn(C2CC2)c2cc(-n3cc(CN4CCOCC4)nn3)c(F)cc2c1=O
6 (≈ 11.5 µM)	CCn1cc(C(=O)O)c(=O)c2cc(F)c(N3CCN(CC(=O)Nc4nc5ccc(C)cc5s4)CC3)cc21
> 64	COc1ccc(/C=N/NC(=O)c2cn(C3CC3)c3cc(N/N=C/c4ccc(OC)cc4)c(F)cc3c2=O)cc1
6 (≈ 10.8 µM)	O=C(CN1CCN(c2cc3c(cc2F)c(=O)c(C(=O)O)cn3C2CC2)CC1)Nc1nc2ccc(Cl)cc2s1
6 (≈ 11.2 µM)	Cc1ccc2nc(NC(=O)CN3CCN(c4cc5c(cc4F)c(=O)c(C(=O)O)cn5C4CC4)CC3)sc2c1
6 (≈ 10.3 µM)	COc1c(N2CCN(CC(=O)Nc3nc4ccc(F)cc4s3)C(C)C2)c(F)cc2c(=O)c(C(=O)O)cn(C3CC3)c12 (centres undefined)
> 64	O=C(NO)c1cn(C2CC2)c2cc(-n3cc(CN4CCNCC4)nn3)c(F)cc2c1=O
> 64	O=C(N/N=C/c1ccc2c(c1)OCO2)c1cn(C2CC2)c2cc(N/N=C/c3ccc4c(c3)OCO4)c(F)cc2c1=O
6 (≈ 11 µM)	CCn1cc(C(=O)O)c(=O)c2cc(F)c(N3CCN(CC(=O)Nc4nc5ccc(Cl)cc5s4)CC3)cc21
> 64	O=C(N/N=C/c1ccc([N+](=O)[O-])cc1)c1cn(C2CC2)c2cc(N/N=C/c3ccc([N+](=O)[O-])cc3)c(F)cc2c1=O
> 64	CCCN(CCC)Cc1cn(-c2cc3c(cc2F)c(=O)c(C(=O)NO)cn3C2CC2)nn1
> 64	O=C(N/N=C/c1ccccc1)c1cn(C2CC2)c2cc(N3CCNCC3)c(F)cc2c1=O
> 64	O=C(N/N=C/c1ccc(F)cc1)c1cn(C2CC2)c2cc(N/N=C/c3ccc(F)cc3)c(F)cc2c1=O
6 (≈ 10 µM)	COc1c(N2CCN(CC(=O)Nc3nc4ccc(Cl)cc4s3)C(C)C2)c(F)cc2c(=O)c(C(=O)O)cn(C3CC3)c12 (centres undefined)
6 (≈ 11.4 µM)	CCn1cc(C(=O)O)c(=O)c2cc(F)c(N3CCN(CC(=O)Nc4nc5ccc(F)cc5s4)CC3)cc21
> 64	COc1ccc(/C=N/NC(=O)c2cn(C3CC3)c3cc(N4CCNCC4)c(F)cc3c2=O)cc1O
> 64	COc1cc(/C=N/NC(=O)c2cn(C3CC3)c3cc(N4CCNCC4)c(F)cc3c2=O)cc(OC)c1OC

The compounds below were run on Escherichia coli (assay: Antibacterial activity against Escherichia coli assessed as bacterial growth inhibition incubated for 24 hrs by agar streak dilution method).
Assay type: functional

MIC [µg/mL]	Compound
2 (≈ 3.27 µM)	CCn1cc(C(=O)O)c(=O)c2cc(F)c(N3CCN(C4SCC(=O)N4c4nc5ccc(NC(C)=O)cc5s4)CC3)cc21 (centres undefined)
2 (≈ 3.46 µM)	CCn1cc(C(=O)O)c(=O)c2cc(F)c(N3CCN(C4SCC(=O)N4c4nc5ccc(C#N)cc5s4)CC3)cc21 (centres undefined)
2 (≈ 3.34 µM)	CCn1cc(C(=O)O)c(=O)c2cc(F)c(N3CCN(C4SCC(=O)N4c4nc5ccc([N+](=O)[O-])cc5s4)CC3)cc21 (centres undefined)
2 (≈ 3.5 µM)	CCn1cc(C(=O)O)c(=O)c2cc(F)c(N3CCN(C4SCC(=O)N4c4nc5ccc(F)cc5s4)CC3)cc21 (centres undefined)
2 (≈ 3.1 µM)	O=C(O)c1cn(C2CC2)c2cc(N3CCN(C4SCC(=O)N4c4nc5ccc(Br)cc5s4)CC3)c(F)cc2c1=O (centres undefined)
2 (≈ 3.43 µM)	CCn1cc(C(=O)O)c(=O)c2cc(F)c(N3CCN(C4SCC(=O)N4c4nc5ccc(OC)cc5s4)CC3)cc21 (centres undefined)
2 (≈ 3.21 µM)	CC(=O)Nc1ccc2nc(N3C(=O)CSC3N3CCN(c4cc5c(cc4F)c(=O)c(C(=O)O)cn5C4CC4)CC3)sc2c1 (centres undefined)
2 (≈ 3.35 µM)	CCOc1ccc2nc(N3C(=O)CSC3N3CCN(c4cc5c(cc4F)c(=O)c(C(=O)O)cn5CC)CC3)sc2c1 (centres undefined)
2 (≈ 3.28 µM)	O=C(O)c1cn(C2CC2)c2cc(N3CCN(C4SCC(=O)N4c4nc5ccc([N+](=O)[O-])cc5s4)CC3)c(F)cc2c1=O (centres undefined)
2 (≈ 3.28 µM)	CCOc1ccc2nc(N3C(=O)CSC3N3CCN(c4cc5c(cc4F)c(=O)c(C(=O)O)cn5C4CC4)CC3)sc2c1 (centres undefined)
2 (≈ 3.16 µM)	CCn1cc(C(=O)O)c(=O)c2cc(F)c(N3CCN(C4SCC(=O)N4c4nc5ccc(Br)cc5s4)CC3)cc21 (centres undefined)
2 (≈ 3.36 µM)	COc1ccc2nc(N3C(=O)CSC3N3CCN(c4cc5c(cc4F)c(=O)c(C(=O)O)cn5C4CC4)CC3)sc2c1 (centres undefined)
2 (≈ 3.43 µM)	O=C(O)c1cn(C2CC2)c2cc(N3CCN(C4SCC(=O)N4c4nc5ccc(F)cc5s4)CC3)c(F)cc2c1=O (centres undefined)
2 (≈ 3.39 µM)	N#Cc1ccc2nc(N3C(=O)CSC3N3CCN(c4cc5c(cc4F)c(=O)c(C(=O)O)cn5C4CC4)CC3)sc2c1 (centres undefined)
